Experimental data from US20120082684A1, “DIAGNOSIS AND TREATMENT OF CELL PROLIFERATION AND DIFFERENTIATION DISORDERS BASED ON THE FMN2 GENE” (UNIVERSITY COURT OF THE UNIVERSITY OF DUNDEE, priority 2009, published 2012).

Key:
[1] = system: NARF2 cells; assay: Rescue of FMN2 depletion by co-transfection of siRNAs, Western blot (FIG. 14); format: cell-based, human; conditions: co-transfection of both PA28γ siRNA and Skp2 siRNA with FMN2 siRNA, with/without p14ARF induction
Protocol: (§1) siRNA experiments. siRNA duplex oligo ribonucleotides were synthesised by MWG and transfected using Interferin (Polyplus) as per manufacturers instruction. In brief, cells were plated the day before transfection at the concentration of 2×10^5 cells per well in 6 well plates. The following day, cells were transfected with the final concentration of 5 nM of siRNA oligoribonucleotides in fresh media, final volume of 2.2 ml. Cells were incubated for a further 48 hours prior to harvesting. IPTG was added for 24 hours unless otherwise stated. siRNA sequences are described here (Control: 5′-CAGUCGCGUUUGCGACUGG-3′, FMN2-5′-GUAUACCAGGUCUCCUCAA-3′, PA28γ-5′-GAAUCAAUAUGUCACUCUA-3′, Skp2-5′-ACUCAAGUCCAGCCAUAAG-3′).).
FIG. 14. […] Detection of protein levels for endogenous FMN2, Skp2, PA28G, p21, p14ARF and Actin following transfection of NARF2 cells using either siRNAs for FMN2 (see FIG. 15A for location of siRNA target sequence), PA28γ, Skp2 and control (Control) with/without p14ARF induction (+/blank). An equivalent amount of NARF2 extract was loaded for each lane and the proteins separated by SDS PAGE, electroblotted and probed both with a monoclonal anti-PA28γ and polyclonal anti-FMN2, anti-Skp2, anti-p21, anti-p14ARF and with anti-Actin as a loading control.

[2] = system: NARF2 cells; assay: siRNA knock-down in NARF2 cells, protein levels by blot (FIG. 10); format: cell-based, human; conditions: 5 nM siRNA, 48 hours, with or without 24 hours IPTG
Protocol: FIG. 10. siRNA approach for FMN2. NARF2 cells were treated with Control, DNA-PK, or FMN2 siRNA and harvested 48 hours with or without 24 hours IPTG induction.
siRNA duplex oligonucleotides were synthesised by MWG and transfected using Interferin (Polyplus) as per manufacturers instruction. In brief, cells were plated the day before transfection at the concentration of 2×10^5 cells per well in 6 well plates. The following day, cells were transfected with the final concentration of 5 nM of siRNA oligonucleotides in fresh media, final volume of 2.2 ml. Cells were incubated for additional 48 hours prior to harvesting. IPTG was added for 24 hours unless otherwise stated. siRNA sequences were described here (Control: CAGUCGCGUUUGCGACUGG, FMN2-GUAUACCAGGUCUCCUCAA). MG132 was purchased from Merck Chemicals and used at the final concentration of 50 μM.
To analyse the function of the FMN2 protein in cells, we designed five siRNAs to suppress FMN2 expression. […] (FIG. 10a). […] In contrast, siRNA knock-down of DNA-PK causes a decrease in the levels of both puma and p21 (FIG. 10b).
as §1

Substance | rescue of p21 inactivation following FMN2 depletion [1] | FMN2 expression after siRNA [2] | effect on Hdm2 [2] | effect on p53 [2] | p21 level [2] | puma level [2]
5′-ACUCAAGUCCAGCCAUAAG-3′ [Skp2 siRNA] | partially rescued | – | – | – | – | –
5′-GAAUCAAUAUGUCACUCUA-3′ [PA28γ siRNA] | partially rescued | – | – | – | – | –
5′-GUAUACCAGGUCUCCUCAA-3′ [FMN2 siRNA] | – | successful in suppressing FMN2 expression | didn't see any effect | didn't see any effect | severely reduced | does not affect puma levels
